# Test results reported in ChEMBL document CHEMBL2203054, “Synthesis and biological evaluation of a selective N- and p/q-type calcium channel agonist” (ACS Med Chem Lett, 2012).
# Columns and labels:
# [1] = target: T1, Voltage-dependent N-type calcium channel subunit alpha-1B (Homo sapiens, UniProt Q00975); assay: Agonist activity at N-type Cav2.2 channel expressed in tsA201 cell assessed as calcium current by whole-cell patch clamp method; type: functional, cell-based
# Target sequence in this assay (Q00975 whole entry): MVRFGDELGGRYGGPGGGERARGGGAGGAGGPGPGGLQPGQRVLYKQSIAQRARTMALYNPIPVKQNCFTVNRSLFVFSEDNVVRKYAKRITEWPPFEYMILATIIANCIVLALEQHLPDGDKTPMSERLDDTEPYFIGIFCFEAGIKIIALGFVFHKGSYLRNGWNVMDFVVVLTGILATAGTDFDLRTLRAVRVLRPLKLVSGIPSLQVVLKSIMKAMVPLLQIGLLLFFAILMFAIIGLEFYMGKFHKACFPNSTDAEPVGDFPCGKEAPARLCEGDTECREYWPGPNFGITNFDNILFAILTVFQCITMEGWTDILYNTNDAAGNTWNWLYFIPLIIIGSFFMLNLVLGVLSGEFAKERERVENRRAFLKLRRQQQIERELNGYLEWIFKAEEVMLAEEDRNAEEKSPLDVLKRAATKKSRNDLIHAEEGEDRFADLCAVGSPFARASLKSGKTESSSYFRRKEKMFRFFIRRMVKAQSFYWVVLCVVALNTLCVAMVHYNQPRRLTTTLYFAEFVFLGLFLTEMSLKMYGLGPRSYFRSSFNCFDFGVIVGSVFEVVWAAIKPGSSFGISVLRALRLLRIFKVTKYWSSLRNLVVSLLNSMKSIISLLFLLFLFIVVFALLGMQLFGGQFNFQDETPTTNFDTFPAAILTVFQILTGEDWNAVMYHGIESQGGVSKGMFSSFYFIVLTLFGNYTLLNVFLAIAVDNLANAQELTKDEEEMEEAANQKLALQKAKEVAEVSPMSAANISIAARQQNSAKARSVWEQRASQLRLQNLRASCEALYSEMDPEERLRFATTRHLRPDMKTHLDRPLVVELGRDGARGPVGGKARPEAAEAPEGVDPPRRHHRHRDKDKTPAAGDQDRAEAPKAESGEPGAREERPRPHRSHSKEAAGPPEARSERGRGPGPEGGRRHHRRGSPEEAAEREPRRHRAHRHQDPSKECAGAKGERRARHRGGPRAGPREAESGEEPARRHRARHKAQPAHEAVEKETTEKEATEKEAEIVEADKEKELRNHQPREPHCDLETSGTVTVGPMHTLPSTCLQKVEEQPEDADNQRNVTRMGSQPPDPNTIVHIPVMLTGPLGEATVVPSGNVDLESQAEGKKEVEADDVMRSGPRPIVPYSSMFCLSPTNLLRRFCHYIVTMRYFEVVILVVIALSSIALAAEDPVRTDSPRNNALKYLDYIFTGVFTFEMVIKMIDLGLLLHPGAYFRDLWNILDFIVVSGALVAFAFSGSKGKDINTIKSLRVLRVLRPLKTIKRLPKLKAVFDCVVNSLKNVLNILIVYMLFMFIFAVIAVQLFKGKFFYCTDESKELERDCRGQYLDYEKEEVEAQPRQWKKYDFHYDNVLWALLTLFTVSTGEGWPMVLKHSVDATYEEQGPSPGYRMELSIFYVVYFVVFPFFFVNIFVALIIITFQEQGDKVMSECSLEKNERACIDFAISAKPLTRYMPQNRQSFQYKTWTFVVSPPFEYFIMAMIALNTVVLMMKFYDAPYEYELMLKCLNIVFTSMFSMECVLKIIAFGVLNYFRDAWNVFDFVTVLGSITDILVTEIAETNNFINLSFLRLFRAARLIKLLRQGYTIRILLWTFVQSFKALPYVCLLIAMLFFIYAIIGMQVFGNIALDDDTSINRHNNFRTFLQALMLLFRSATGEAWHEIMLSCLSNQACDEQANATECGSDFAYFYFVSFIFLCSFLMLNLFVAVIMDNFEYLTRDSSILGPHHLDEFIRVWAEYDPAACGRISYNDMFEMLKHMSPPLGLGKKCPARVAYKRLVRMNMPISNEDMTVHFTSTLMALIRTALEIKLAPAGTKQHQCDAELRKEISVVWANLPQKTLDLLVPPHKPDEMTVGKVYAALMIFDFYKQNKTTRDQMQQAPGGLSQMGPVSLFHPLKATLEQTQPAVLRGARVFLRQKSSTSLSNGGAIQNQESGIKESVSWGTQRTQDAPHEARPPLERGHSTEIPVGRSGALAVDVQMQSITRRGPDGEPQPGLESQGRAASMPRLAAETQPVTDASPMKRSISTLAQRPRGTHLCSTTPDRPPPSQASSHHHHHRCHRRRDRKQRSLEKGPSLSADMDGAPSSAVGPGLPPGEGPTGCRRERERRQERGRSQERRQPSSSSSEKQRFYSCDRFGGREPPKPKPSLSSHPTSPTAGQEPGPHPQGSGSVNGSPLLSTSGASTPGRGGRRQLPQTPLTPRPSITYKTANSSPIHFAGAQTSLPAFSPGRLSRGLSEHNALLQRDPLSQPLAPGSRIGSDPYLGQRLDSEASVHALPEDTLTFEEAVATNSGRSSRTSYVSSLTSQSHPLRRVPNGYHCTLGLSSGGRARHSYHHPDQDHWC
# [2] = target: T1, Voltage-dependent N-type calcium channel subunit alpha-1B; assay: Ratio of (R)-roscovitine EC50 to compound EC50 for N-type Cav2.2 channel
# Target sequence in this assay (Q00975 whole entry, looked up): as the sequence (Q00975 whole entry) above
# [3] = target: Mitogen-activated protein kinase 1 (Homo sapiens, UniProt P28482); assay: Inhibition of human MAPK1
# [4] = target: Myosin light chain kinase, smooth muscle (Homo sapiens, UniProt Q15746); assay: Inhibition of human MLCK
# [5] = target: Cyclin-dependent kinase 5/CDK5 activator 1 (Homo sapiens, UniProt Q00535); assay: Inhibition of human Cdk5/p35 activity; type: protein-complex assay
# [6] = target: Cyclin-dependent kinase 1/cyclin B1 (Homo sapiens, UniProt P06493); assay: Inhibition of human Cdk1/cyclin B activity; type: protein-complex assay
# [7] = target: Voltage-dependent L-type calcium channel subunit alpha-1D (Homo sapiens, UniProt Q01668); assay: Agonist activity at L-type Cav1.3 expressed in tsA201 cell assessed as calcium current by whole-cell patch clamp method; type: functional, cell-based
# [8] = target: Voltage-dependent P/Q-type calcium channel subunit alpha-1A (Homo sapiens, UniProt O00555); assay: Agonist activity at P/Q-type Cav2.1 expressed in tsA201 cell assessed as calcium current by whole-cell patch clamp method; type: functional, cell-based
# Voltage-dependent P/Q-type calcium channel subunit alpha-1A, sequence (O00555 whole entry): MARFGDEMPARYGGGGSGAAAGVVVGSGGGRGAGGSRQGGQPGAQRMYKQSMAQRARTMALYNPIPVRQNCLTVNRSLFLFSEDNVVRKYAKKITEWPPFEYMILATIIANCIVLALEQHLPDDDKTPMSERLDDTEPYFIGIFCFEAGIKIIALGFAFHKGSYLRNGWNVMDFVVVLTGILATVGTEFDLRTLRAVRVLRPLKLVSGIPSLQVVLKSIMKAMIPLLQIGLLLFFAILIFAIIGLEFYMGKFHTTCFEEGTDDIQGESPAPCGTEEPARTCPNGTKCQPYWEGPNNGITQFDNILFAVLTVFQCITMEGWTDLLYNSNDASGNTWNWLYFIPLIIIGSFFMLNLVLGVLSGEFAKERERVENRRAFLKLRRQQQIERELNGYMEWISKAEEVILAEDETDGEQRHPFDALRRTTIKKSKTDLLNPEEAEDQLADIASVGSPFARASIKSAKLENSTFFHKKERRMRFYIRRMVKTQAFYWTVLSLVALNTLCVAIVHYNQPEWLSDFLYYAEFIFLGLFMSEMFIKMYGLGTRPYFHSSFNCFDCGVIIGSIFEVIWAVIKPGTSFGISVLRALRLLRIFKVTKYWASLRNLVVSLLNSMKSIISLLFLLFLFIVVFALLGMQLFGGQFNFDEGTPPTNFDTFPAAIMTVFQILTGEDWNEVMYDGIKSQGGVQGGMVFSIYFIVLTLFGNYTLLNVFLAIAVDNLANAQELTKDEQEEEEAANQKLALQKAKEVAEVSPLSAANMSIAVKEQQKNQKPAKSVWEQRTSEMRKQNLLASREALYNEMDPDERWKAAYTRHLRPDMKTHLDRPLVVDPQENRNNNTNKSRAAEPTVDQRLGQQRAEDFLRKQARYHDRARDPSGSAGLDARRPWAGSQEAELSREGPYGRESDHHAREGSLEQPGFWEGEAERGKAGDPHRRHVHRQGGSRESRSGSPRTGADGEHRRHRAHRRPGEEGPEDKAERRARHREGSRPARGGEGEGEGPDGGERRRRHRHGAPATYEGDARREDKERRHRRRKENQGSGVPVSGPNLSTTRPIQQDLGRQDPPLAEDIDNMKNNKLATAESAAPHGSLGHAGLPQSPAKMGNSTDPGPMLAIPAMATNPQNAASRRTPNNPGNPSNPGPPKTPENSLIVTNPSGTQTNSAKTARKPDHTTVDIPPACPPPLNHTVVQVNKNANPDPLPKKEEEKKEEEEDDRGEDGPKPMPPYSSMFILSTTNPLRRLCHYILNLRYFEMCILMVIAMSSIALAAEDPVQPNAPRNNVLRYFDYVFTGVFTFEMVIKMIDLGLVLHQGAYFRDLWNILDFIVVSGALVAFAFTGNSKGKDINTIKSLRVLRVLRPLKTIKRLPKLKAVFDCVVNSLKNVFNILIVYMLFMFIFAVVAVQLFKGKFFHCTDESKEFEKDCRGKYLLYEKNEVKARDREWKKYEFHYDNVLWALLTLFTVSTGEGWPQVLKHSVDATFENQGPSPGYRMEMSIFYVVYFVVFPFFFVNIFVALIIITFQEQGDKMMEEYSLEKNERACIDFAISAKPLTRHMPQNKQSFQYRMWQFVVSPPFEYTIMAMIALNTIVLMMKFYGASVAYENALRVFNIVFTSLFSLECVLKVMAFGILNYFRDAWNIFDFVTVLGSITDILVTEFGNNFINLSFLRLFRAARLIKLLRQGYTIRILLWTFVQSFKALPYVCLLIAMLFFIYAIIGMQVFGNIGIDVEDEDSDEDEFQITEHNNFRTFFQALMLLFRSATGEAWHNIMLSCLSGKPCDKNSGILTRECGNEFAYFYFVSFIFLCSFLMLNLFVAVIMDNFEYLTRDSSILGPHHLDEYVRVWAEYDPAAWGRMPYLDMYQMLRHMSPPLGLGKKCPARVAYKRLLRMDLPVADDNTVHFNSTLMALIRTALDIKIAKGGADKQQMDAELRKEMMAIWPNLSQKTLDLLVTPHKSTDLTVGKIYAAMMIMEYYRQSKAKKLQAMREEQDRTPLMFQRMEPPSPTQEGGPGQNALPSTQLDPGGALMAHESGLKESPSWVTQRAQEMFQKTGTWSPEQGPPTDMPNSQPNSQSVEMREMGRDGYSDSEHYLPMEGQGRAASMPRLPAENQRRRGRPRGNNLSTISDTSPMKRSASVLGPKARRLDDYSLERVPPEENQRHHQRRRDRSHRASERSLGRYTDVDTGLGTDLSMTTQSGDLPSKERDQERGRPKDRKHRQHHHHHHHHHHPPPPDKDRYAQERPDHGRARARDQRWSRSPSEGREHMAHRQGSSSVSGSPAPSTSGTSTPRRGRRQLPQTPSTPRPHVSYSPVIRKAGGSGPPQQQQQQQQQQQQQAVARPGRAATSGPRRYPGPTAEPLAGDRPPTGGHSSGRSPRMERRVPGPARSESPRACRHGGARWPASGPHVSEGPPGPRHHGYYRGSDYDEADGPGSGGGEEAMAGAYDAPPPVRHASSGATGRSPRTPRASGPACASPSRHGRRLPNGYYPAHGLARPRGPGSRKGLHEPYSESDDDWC
# [9] = target: Cyclin-dependent kinase 2/cyclin A (Homo sapiens, UniProt P24941); assay: Inhibition of human Cdk2/cyclin A activity; type: protein-complex assay
compound,measurement,setting,value
CCCn1cnc2c(NCCc3ccccc3)nc(N[C@H](CC)CO)nc21,EC50,[1],> 100 µM
CCCn1cnc2c(NCc3ccc(-c4ccccc4)cc3)nc(N[C@H](CC)CO)nc21,EC50,[1],> 100 µM
CC[C@H](CO)Nc1nc(NCc2ccccc2O)c2ncn(C(C)C)c2n1 [OLOMOUCINE II],EC50,[1],80 µM
CCCn1cnc2c(NC(c3ccccc3)c3ccccc3)nc(N[C@H](CC)CO)nc21,EC50,[1],> 100 µM
CC(C)n1cnc2c(NCc3ccccc3)nc(NCCCO)nc21 [BOHEMINE],EC50,[1],> 1000 µM
CC[C@H](CO)Nc1nc(Nc2ccccc2)c2ncn(C)c2n1,EC50,[1],> 100 µM
CC[C@H](CO)Nc1nc(NCc2ccccc2)n2ncc(C(C)C)c2n1,EC50,[1],< 100 µM
CN(C)CCNc1nc(NCc2ccccc2)c2ncn(C)c2n1,EC50,[1],> 1000 µM
Cn1cnc2nc(NCCO)nc(NCc3ccccc3)c21,EC50,[1],> 1000 µM
Cn1cnc2c(NCc3ccccc3)nc(NCCO)nc21 [OLOMOUCINE],EC50,[1],> 1000 µM
CCCn1cnc2c(NCc3ccc(C)s3)nc(N[C@H](CC)CO)nc21,Ratio EC50,[2],4
same,EC50,[3],> 20 µM
same,EC50,[4],> 20 µM
same,EC50,[5],3.03 µM
same,EC50,[6],20.6 µM
same,EC50,[7],> 100 µM
same,EC50,[8],8.8 µM
same,EC50,[9],3.29 µM
same,EC50,[1],7.21 µM
CC[C@H](CO)Nc1nc(NCc2ccccc2)c2ncn(C)c2n1,EC50,[1],> 70 µM
CC[C@H](CO)Nc1nc(NCc2cccnc2)c2ncn(C(C)C)c2n1,EC50,[1],> 100 µM
CCCn1cnc2c(NCc3cccnc3)nc(N[C@H](CC)CO)nc21,EC50,[1],> 100 µM
CC[C@H](CO)Nc1nc(NCC2CC2)c2ncn(C)c2n1,EC50,[1],> 100 µM
CC(C)n1cnc2c(NCc3ccccc3)nc(NCCO)nc21,EC50,[1],> 1000 µM
CC[C@H](CO)Nc1nc(NCc2cccc(C(F)(F)F)c2)c2ncn(C(C)C)c2n1,EC50,[1],> 100 µM
CCCn1cnc2c(NCc3ccccc3)nc(N[C@H](CC)CO)nc21,EC50,[1],14.2 µM
CC[C@H](CO)Nc1nc(NC(c2ccccc2)c2ccccc2)c2ncn(C)c2n1,EC50,[1],> 100 µM
CC[C@H](CO)Nc1nc(NCCc2ccccc2)c2ncn(C)c2n1,EC50,[1],> 100 µM
CC[C@H](CO)Nc1nc(NC(c2ccccc2)c2ccccc2)c2ncn(C(C)C)c2n1,EC50,[1],> 100 µM
CC[C@H](CO)Nc1nc(NCc2ccc(-c3ccccc3)cc2)c2ncn(C)c2n1,EC50,[1],> 100 µM
CC[C@H](CO)Nc1nc(NCc2ccc(C)s2)c2ncn(C)c2n1,EC50,[9],3.04 µM
same,EC50,[1],30 µM
CCCn1cnc2c(Nc3ccccc3)nc(N[C@H](CC)CO)nc21,EC50,[1],> 100 µM
CC[C@H](CO)Nc1nc(NCCc2ccccc2)c2ncn(C(C)C)c2n1,EC50,[1],> 100 µM
CC[C@H](CO)Nc1nc(NCC2CC2)c2ncn(C(C)C)c2n1,EC50,[1],> 100 µM
CC[C@H](CO)Nc1nc(NCc2ccc(C)s2)c2ncn(C(C)C)c2n1,EC50,[1],11.3 µM
CC[C@H](CO)Nc1nc(N(C)Cc2ccccc2)c2ncn(C(C)C)c2n1,EC50,[1],> 1000 µM
O=c1[nH]c2ccccc2c2[nH]c3ccc(Br)cc3c12,EC50,[1],> 1000 µM
CC[C@H](CO)Nc1nc(NCc2cccnc2)c2ncn(C)c2n1,EC50,[1],> 100 µM
CC[C@H](CO)Nc1nc(NCc2ccc(-c3ccccc3)cc2)c2ncn(C(C)C)c2n1,EC50,[1],> 100 µM
CCCn1cnc2c(NCC3CC3)nc(N[C@H](CC)CO)nc21,EC50,[9],3.63 µM
same,EC50,[1],> 100 µM
CCCn1cnc2c(NCc3ccc(C(F)(F)F)cc3)nc(N[C@H](CC)CO)nc21,EC50,[1],> 100 µM
O=Nc1c(-c2c(O)[nH]c3ccccc23)[nH]c2ccccc12 [INDIRUBIN-3-MONOXIME],EC50,[1],> 1000 µM
CC[C@H](CO)Nc1nc(N(Cc2ccccc2)Cc2ccccc2)c2ncn(C(C)C)c2n1,EC50,[1],> 1000 µM
